Reference: US20240091267A1, “PRE-TREATMENT OF MSC WITH PPARB/DELTA AGONIST FOR TREATMENT OF ISCHEMIA-REPERFUSION INJURY” (Universite de Montpellier, priority 2020, published 2024)

System: LV protein extracts from murine IR hearts
Assay: Western blot of LV protein extracts from ex vivo IR hearts (cleaved caspase 3, pAKT/AKT, pERK1/2/ERK1/2)
Set-up: species or system mouse (C57BL/6J)
Settings: for Cleaved caspase 3 (caspase 3 activation): IR hearts reperfused with MSC 2500 cells/mL, pre-treated 24 h or not (GW0742 1 μM)
Protocol: FIG. 9: (A) C57B16 mouse hearts were mounted on a Langendorff system. The ex vivo protocol comprises a 15 minute-period of stabilization, followed by 30 minutes of global ischemia achieved by stopping the flow through the aorta (no-flow). Reperfusion was achieved by restoring the Tyrode perfusion during 60 minutes (IR group). […] At the end of the protocol, hearts were collected, protein extracted for further analysis. (B, C, D) Western blot analysis was performed from LV protein extracts from IR non-treated or MSC-treated murine IR hearts (ex vivo) with or without a pharmacological pre-treatment. Scatter dot blots and mean±SD were plotted for Cleaved-caspase 3 (W=0.0322 for IR, n=10 vs MSC +GW0742, n=10) and for pAKT/AKT (p*=0.0385 for IR, n=8 vs MSC+GW0742, n=8). Data were compared using non parametric Kruskal-Wallis test (Dunn's post hoc test).
On the Langendorff system, the heart was subjected to ischemia-reperfusion (IR) protocol comprising, after a 15 min-stabilization period of Tyrode perfusion, a 30 min-period of no-flow to induce global ischemia). Reperfusion was achieved by restoring the perfusion during 60 min with the Tyrode solution alone (IR control) or with MSC cell in Tyrode solution (MSC) administrated during reperfusion. Ischemic postconditioning was induced at the end of global ischemia by the application of a conditioning stimulus comprising 3 cycles of 1 min-reperfusion/1 min-ischemia, followed by 54 min of reperfusion. For the ex vivo evaluation of MSC-based cell therapy, 80 to 150 mL of MSC (mean value 120 mL) cells prepared in the Tyrode solution at various concentrations (2500, 5000 et 20000 cells/mL) were perfused retrogradely via the aorta and the coronary vessels in isolated hearts during the 60 min-reperfusion phase.
Tissue samples (left ventricle) were rapidly frozen in liquid nitrogen after the end of ex vivo IR protocols. […] Protein concentrations were determined with the bicinchoninic acid (BCA) protein assay kit (Pierce). […]

SMILES	Cleaved caspase 3 (caspase 3 activation)	Phosphorylation ratio pAkt/Akt (IR hearts, MSC pre-treated with 1 μM prior to administration during reperfusion, vs non-treated IR)
COC(=O)c1sccc1S(=O)(=O)Nc1ccc(Nc2ccccc2)cc1OC [GSK0660]	restored full activation of caspase 3	
Cc1cc(SCc2sc(-c3ccc(C(F)(F)F)c(F)c3)nc2C)ccc1OCC(=O)O [GW0742]	inhibition of caspase 3 cleavage was further increased	significantly increased phosphorylation ratio pAkt/Akt
